Where “and” joins values, the source holds several entries; their conditions need not be identical. Equal entries are not always repeated. Inconclusive results and toxic doses are left out.

In the test the test system is P388 leukemia ip, CD2F1 mice, survival T/C. Kind of test: NCI In Vivo Anticancer Drug Screen. Data for tumor model P388 Leukemia (intraperitoneal) in CD2F1 (CDF1) mice. Particulars: endpoint: median survival time, higher = longer survival. The procedure, abridged:
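Mice carrying the transplanted tumor received test compound or vehicle. Survival was recorded in each group, and the value is the treated-group measurement divided by that of the vehicle-treated control group.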

The mark [1] stands for this setting: dose: 50.0 mg/kg/injection, schedule: Q04DX003 (ip), vehicle: saline with Tween-80.
[2] abbreviates: dose: 100.0 mg/kg/injection, schedule: Q04DX003 (ip), vehicle: saline with Tween-80.
The mark [3] stands for this setting: dose: 60.0 mg/kg/injection, schedule: Q01DX005 (ip), vehicle: Klucel (hydroxypropylcellulose) (HPC).
The mark [4] stands for this setting: dose: 120.0 mg/kg/injection, schedule: Q01DX005 (ip), vehicle: Klucel (hydroxypropylcellulose) (HPC).
Where [5] appears, read: dose: 240.0 mg/kg/injection, schedule: Q01DX005 (ip), vehicle: Klucel (hydroxypropylcellulose) (HPC).
Where [6] appears, read: dose: 100.0 mg/kg/injection, schedule: Q04DX002 (ip), vehicle: saline.
[7] abbreviates: dose: 200.0 mg/kg/injection, schedule: Q04DX002 (ip), vehicle: saline.
Where [8] appears, read: dose: 400.0 mg/kg/injection, schedule: Q04DX002 (ip), vehicle: saline.
Where [9] appears, read: dose: 200.0 mg/kg/injection, schedule: Q04DX003 (ip), vehicle: saline with Tween-80.
Setting [10] is: dose: 400.0 mg/kg/injection, schedule: Q04DX003 (ip), vehicle: saline with Tween-80.
Where [11] appears, read: dose: 60.0 mg/kg/injection, schedule: Q01DX005 (ip), vehicle: saline with Tween-80.
[12] abbreviates: dose: 120.0 mg/kg/injection, schedule: Q01DX005 (ip), vehicle: saline with Tween-80.
[13] abbreviates: dose: 240.0 mg/kg/injection, schedule: Q01DX005 (ip), vehicle: saline with Tween-80.
[14] abbreviates: dose: 100.0 mg/kg/injection, schedule: Q01DX009 (ip), vehicle: saline with Tween-80.
Setting [15] is: dose: 50.0 mg/kg/injection, schedule: Q01DX009 (ip), vehicle: saline with Tween-80.
[16] abbreviates: dose: 200.0 mg/kg/injection, schedule: Q01DX009 (ip), vehicle: saline with Tween-80.
Where [17] appears, read: dose: 100.0 mg/kg/injection, schedule: Q01DX009 (ip), vehicle: Klucel (hydroxypropylcellulose) (HPC).
Setting [18] is: dose: 200.0 mg/kg/injection, schedule: Q01DX009 (ip), vehicle: Klucel (hydroxypropylcellulose) (HPC).

`COc1ccc(OC)c(C2N(Cc3ccc(N(C)C)cc3)CCCN2Cc2ccc(N(C)C)cc2)c1`: the T/C runs as follows: under setting [1], 91 % of control; under setting [2], 91 % of control.

Turning to `CCOC(=O)c1nnn(-c2cncc(-n3nnc(C(=O)OCC)c3C(=O)OCC)n2)c1C(=O)OCC`, the T/C is 98 % of control under setting [3], 102 % of control under setting [4] and 103 % of control under setting [5].

On to `CC1(C)N=C(N)N=C(N)N1c1ccc(S(C)(=O)=O)cc1`, for which the T/C by setting is: (dose: 12.5 mg/kg/injection, schedule: Q01DX005 (ip), vehicle: saline with Tween-80) 103 % of control; (dose: 25.0 mg/kg/injection, schedule: Q01DX005 (ip), vehicle: saline with Tween-80) 101 % of control; (dose: 50.0 mg/kg/injection, schedule: Q01DX005 (ip), vehicle: saline with Tween-80) 100 % of control and 106 % of control.

As to `CN1CCc2cc3c(cc2C(=O)Cc2ccc4c(c2C1)OCO4)OCO3`, the T/C was 95 % of control (dose: 25.0 mg/kg/injection, schedule: Q04DX003 (ip), vehicle: saline with Tween-80); 90 % of control under setting [1]; 90 % of control under setting [2].

Take `CC(C)(C)c1cccc(C2(C)C(=O)c3ccccc3C2=O)c1`: the T/C was 102 % of control under setting [6], 101 % of control under setting [7] and 100 % of control under setting [8].

`CCCCCCCCCCCCCCCCCSc1c(O)c(O)c2cccnc2c1O` (tested in a mixture with another compound): the T/C by setting is: under setting [3], 104 % of control; under setting [4], 105 % of control.

For `COc1ccc(C(=O)CC(C(=O)O)c2ccc(OC)c(OC)c2)cc1OC` (stereo unspecified), the T/C under setting [2] is 90 % of control, the T/C under setting [9] was 86 % of control and the T/C under setting [10] was 86 % of control.

Regarding `C=C1C(=O)OC2CCCCC12` (stereo unspecified), the T/C reads like this: (dose: 50.0 mg/kg/injection, schedule: Q04DX003 (ip), vehicle: Klucel (hydroxypropylcellulose) (HPC)) 104 % of control; (dose: 100.0 mg/kg/injection, schedule: Q04DX003 (ip), vehicle: Klucel (hydroxypropylcellulose) (HPC)) 105 % of control; (dose: 200.0 mg/kg/injection, schedule: Q04DX003 (ip), vehicle: Klucel (hydroxypropylcellulose) (HPC)) 101 % of control.

In the case of `CSC(=N\N=C\c1c(F)cccc1Cl)/N=C/N(C)C`, the T/C runs as follows: under setting [11], 95 % of control; under setting [12], 101 % of control; under setting [13], 103 % of control.

Regarding `Cc1ccc(NS(=O)(=O)c2ccc([N+](=O)[O-])cc2)cc1`, the T/C by setting is: under setting [14], 100 % of control; under setting [2], 100 % of control; under setting [9], 100 % of control; (dose: 400.0 mg/kg/injection, schedule: Q01DX009 (ip), vehicle: saline with Tween-80) 90 % of control; under setting [10], 100 % of control.

`CN(C)C(CS(=O)(=O)c1ccccc1)c1ccccc1` (stereo unspecified): the T/C reads like this: under setting [3], 100 % of control; under setting [4], 91 % of control; under setting [5], 91 % of control.

`COC12CC(C)(C)OC1C(C)C1C(CC3(C)C4CC=C5C(C=C(O)C(=O)C5(C)C)C4(C)C(=O)CC13C)O2` (stereo unspecified): the T/C under setting [6] was 100 % of control, the T/C under setting [7] is 100 % of control and the T/C under setting [8] is 100 % of control.

As to `Cc1ccc2c(c1)NC(=S)N=S2(C)=O` (stereo unspecified), the T/C is, setting by setting: under setting [15], 95 % of control; under setting [14], 93 % of control; under setting [16], 102 % of control.

`CSC(C#N)(c1ccccc1)N(C)C` (stereo unspecified): the T/C is, setting by setting: (dose: 25.0 mg/kg/injection, schedule: Q04DX003 (ip), vehicle: suspension in saline) 106 % of control; (dose: 50.0 mg/kg/injection, schedule: Q04DX003 (ip), vehicle: suspension in saline) 103 % of control; under setting [2], 103 % of control; (dose: 100.0 mg/kg/injection, schedule: Q04DX003 (ip), vehicle: suspension in saline) 96 % of control.

In the case of `O=C(CN1CCC(O)(c2ccccc2)CC1)N1CCN(/C=C/c2ccccc2)CC1`, the T/C was 100 % of control under setting [11], 104 % of control under setting [12] and 91 % of control under setting [13].

Take `O=c1n[n+]([O-])ccn1C1OC(CO)C(O)C1O` (stereo unspecified): the T/C is 119 % of control and 123 % of control (dose: 50.0 mg/kg/injection, schedule: Q01DX009 (ip), vehicle: saline); 106 % of control (dose: 100.0 mg/kg/injection, schedule: Q01DX009 (ip), vehicle: saline); 169 % of control and 170 % of control (dose: 300.0 mg/kg/injection, schedule: Q01DX009 (ip), vehicle: saline); 96 % of control (dose: 450.0 mg/kg/injection, schedule: Q01DX009 (ip), vehicle: saline).

As for `COc1ccc2c3c1OC1C(OC)(OC)C=CC4(F)[C@@H](C2)N(C)CC[C@]314` (stereo partly specified), the T/C is 105 % of control (dose: 100.0 mg/kg/injection, schedule: Q01DX001 (ip), vehicle: Klucel (hydroxypropylcellulose) (HPC)); 100 % of control (dose: 200.0 mg/kg/injection, schedule: Q01DX001 (ip), vehicle: Klucel (hydroxypropylcellulose) (HPC)); 96 % of control (dose: 400.0 mg/kg/injection, schedule: Q01DX001 (ip), vehicle: Klucel (hydroxypropylcellulose) (HPC)).

With `O=C(OCOC(=O)c1ccccc1)c1ccccc1`, the T/C was 117 % of control under setting [17]; 107 % of control under setting [18]; 109 % of control (dose: 400.0 mg/kg/injection, schedule: Q01DX009 (ip), vehicle: Klucel (hydroxypropylcellulose) (HPC)).

Consider `CCCCCCCCCCOC(=O)c1ccc(O)cc1`, for which the T/C is 97 % of control under setting [15], 102 % of control under setting [14] and 97 % of control under setting [16].

Consider `COc1c2ccoc2nc2c(O)c3c(c(CC=C(C)C)c12)OCO3`, for which the T/C (dose: 1.5 mg/kg/injection, schedule: Q01DX005 (ip), vehicle: Klucel (hydroxypropylcellulose) (HPC)) is 102 % of control; the T/C (dose: 3.0 mg/kg/injection, schedule: Q01DX005 (ip), vehicle: Klucel (hydroxypropylcellulose) (HPC)) is 104 % of control; the T/C (dose: 6.0 mg/kg/injection, schedule: Q01DX005 (ip), vehicle: Klucel (hydroxypropylcellulose) (HPC)) is 103 % of control; the T/C (dose: 11.88 mg/kg/injection, schedule: Q01DX005 (ip), vehicle: Klucel (hydroxypropylcellulose) (HPC)) is 86 % of control; the T/C (dose: 12.0 mg/kg/injection, schedule: Q01DX005 (ip), vehicle: Klucel (hydroxypropylcellulose) (HPC)) was 96 % of control; the T/C (dose: 47.5 mg/kg/injection, schedule: Q01DX005 (ip), vehicle: Klucel (hydroxypropylcellulose) (HPC)) is 86 % of control.

For `CC([NH-])CC(C)[NH-].O=C(O)C(=O)O.[Pt+2]` (stereo unspecified), the T/C (dose: 12.5 mg/kg/injection, schedule: Q04DX002 (ip), vehicle: saline with Tween-80) is 150 % of control and the T/C (dose: 25.0 mg/kg/injection, schedule: Q04DX002 (ip), vehicle: saline with Tween-80) was 174 % of control.

`CC(C)(C)OC(=O)NC(CCCCNC(=O)OCC1c2ccccc2-c2ccccc21)C(=O)O` (stereo unspecified): the T/C (dose: 50.0 mg/kg/injection, schedule: Q01DX005 (ip), vehicle: Klucel (hydroxypropylcellulose) (HPC)) is 103 % of control; the T/C (dose: 100.0 mg/kg/injection, schedule: Q01DX005 (ip), vehicle: Klucel (hydroxypropylcellulose) (HPC)) was 99 % of control; the T/C (dose: 200.0 mg/kg/injection, schedule: Q01DX005 (ip), vehicle: Klucel (hydroxypropylcellulose) (HPC)) was 103 % of control.

`O=C(O)CC12CC3CC(CC(=O)O)(C1)CC(CC(=O)O)(C3)C2`: the T/C runs as follows: (dose: 50.0 mg/kg/injection, schedule: Q01DX009 (ip), vehicle: Klucel (hydroxypropylcellulose) (HPC)) 109 % of control; under setting [17], 108 % of control; under setting [18], 111 % of control.

Regarding `CCOC(=O)CN1CCC(C(O)c2cc3ccccc3[nH]2)CC1` (stereo unspecified), the T/C is 106 % of control (dose: 100.0 mg/kg/injection, schedule: Q01DX001 (ip), vehicle: saline); 110 % of control (dose: 200.0 mg/kg/injection, schedule: Q01DX001 (ip), vehicle: saline); 109 % of control (dose: 400.0 mg/kg/injection, schedule: Q01DX001 (ip), vehicle: saline).

The values above are taken from PubChem BioAssay AID330 (DTP/NCI, 2004).
